The record followed here is US6284896A, “Abeo-ergoline derivatives as 5HT1A ligands” (Pharmacia & Upjohn S.p.A., priority 1994, dated 2001).

The term IC50 denotes the concentration that inhibits the measured activity by half.

One assay addresses T1, 5-HT1A receptor (Rattus norvegicus, UniProt P19327).
T1 construct: Freezed hippocampus dissected out from rats were homogenized; from tissue; host or cells: rat hippocampus, crude synaptosome membranes
T1 sequence (P19327 1-422): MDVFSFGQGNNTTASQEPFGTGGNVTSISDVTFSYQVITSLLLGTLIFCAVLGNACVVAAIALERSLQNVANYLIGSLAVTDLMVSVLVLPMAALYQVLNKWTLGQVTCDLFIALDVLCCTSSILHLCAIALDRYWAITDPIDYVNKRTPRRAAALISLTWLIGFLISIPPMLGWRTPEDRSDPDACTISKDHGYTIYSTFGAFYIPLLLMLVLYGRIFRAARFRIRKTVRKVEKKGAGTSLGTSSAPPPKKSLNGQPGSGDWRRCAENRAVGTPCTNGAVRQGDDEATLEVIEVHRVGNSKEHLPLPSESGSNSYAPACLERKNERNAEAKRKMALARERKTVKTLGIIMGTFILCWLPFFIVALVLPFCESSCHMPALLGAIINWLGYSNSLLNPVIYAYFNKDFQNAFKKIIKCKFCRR
The experiment in a line: Affinity for Serotonin 1A receptor, 3H-8-OH-DPAT binding test (rat hippocampus synaptosome membranes). The method, then:
Experiment 1: Affinity for Serotonin 1A (^5 KT1A) Receptor [^3 H-8-Hydroxy-2-dipropylaminotetralin (^3-8 -OH-DPTA)-Binding Test].
Preparation of crude synaptosome fraction and binding assay were conducted in accordance with the method reported in Journal of Neurochemistry, vol.
The supernatant was centrifuged at 40,000×g for 20 minutes at 0° C. and the resulting pellet was homogenized in 40 volumes of the above buffer and incubated at 37° C. for 10 minutes.
After completion of reaction, the suspension was centrifuged at 40,000×g for 20 minutes at 0° C. The resulting pellet was washed twice by resuspension in 40 volumes of the above buffer and centrifugation, and finally suspended in 60 volumes of ice-cold 50 mM Tris-HCl buffer (pH 7.4) containing 1 EM manganese chloride for use in the next assay.
To the aliquots (900 μl) of synaptosome membranes solution were added 50 μl of tritiated 8-OH-DPAT solution at the terminal concentration of 0.2 nM and 50 μl of test compound solution or 50 μl of its medium, and incubated at 37° C. for 10 minutes. Then to the mixture were added 5 ml of ice-cold 50 mM Tris-HCl buffer (pH 7.4) rapidly vacuum-filtered through Whatman^R GF/B. filters and was washed twice with 5 ml of the same buffer. The radioactivity of the residue remaining on the filters was measured by liquid scintillation counter. Non specific binding was determined under the presence of 10^-5 M serotonin (5-HT).

For another assay, the target named is D1 receptor. The assay is described as follows: D1 receptor binding (Binding Profile table).
Another assay addresses T2, D2 receptor (Rattus norvegicus, UniProt P61169).
T2 construct: Freezed corpus striatum dissected out from rats were homogenized; from tissue; host or cells: rat corpus striatum, crude synaptosome membranes
The assay is described as follows: Affinity for Dopamine 2 (D2) receptor, 3H-Spiperone binding test (rat corpus striatum). The method, then: Experiment 3: Affinity for Dopamine 2 (D2) Receptor (^3 H-Spiperone Binding Test).
Preparation of crude synaptosome fraction and binding assays were conducted in accordance with the method reported in European Journal of Pharmacology, vol. 46, page 377, 1977 by I. Creese et al. Freezed corpus striatum dissected out from rats were homogenized in 100 volumes of ice-cold 50 mM Tris-HCl buffer (pH 7.7) and the suspension was centrifuged at 500×g for 10 minutes at 0° C. The supernatant was centrifuged at 50,000×g for 15 minutes at 0° C. and the resulting pellet was homogenized in 100 volumes of the above buffer and then the suspension was centrifuged at 50,000×g for 15 minutes at 0° C. again. The resulting pellet was homogenized in 150 volumes of 50 mM Tris-HCl buffer (pH 7.1) containing 120 mM potassium chloride, 2 mM calcium chloride, 1 mM magnesium chloride, 0.1% ascorbic acid and 10 μM pargyline. The suspension was incubated at 37° C. for 10 minutes and then provided as synaptosome membranes solution for the next assays. To the aliquots (900 μ) of synaptosome membranes solution were added 50 μl of 3H-Spiperone solution at the terminal concentration of 0.2 nM and 50 μl of test compound solution or 50 μl of its medium, and incubated at 37° C. for 20 minutes. After completion of the reaction, the mixture was rapidly vacuum-filtered through WhatmanR GF/B filters. The filters were washed three times with 5 ml of the above buffer, and then the radioactivity of the residue remaining on the filters was measured by liquid scintillation counter. Non specific binding was determined under presence of 100 μM of (L)-Sulpiride 50% inhibition concentration (IC50) of the test compound was graphically determined.

Another assay concerns the target T3, 5-HT2 receptor (Rattus norvegicus, UniProt P14842).
T3 construct: Freezed cerebral cortex dissected out from rats were homogenized; from tissue; host or cells: rat cerebral cortex, crude synaptosome membranes
The assay is described as follows: Affinity for Serotonin 2 (5-HT2) receptor, 3H-Ketanserin binding test (rat cerebral cortex). The note with it: 3H-Ketanserin 0.2 mM (so in the source), 37° C., 20 minutes, read-out: Binding Profile IC50 5-HT2. The method, then: Experiment 2: Affinity for Serotonin 2(5-HT2) Receptor (^3 H-Ketanserin Binding Test).
Preparation of crude synaptosome fraction and binding assay were conducted according to the method reported in Molecular Pharmacology, vol. 21, page 301, 1981 by Leysen et al.
Freezed cerebral cortex dissected out from rats were homogenized in 30 volumes of ice-cold 0.32M sucrose solution and the suspension was centrifuged at 1000×g for 10 minutes at 0° C. The supernatant was centrifuged at 40,000×g for 20 minutes at 0° C. and the resulting pellets was homogenized in 30 volumes of ice-cold 50 mM Tris-HCl buffer (pH 7.7) and incubated at 37° C. for 10 minutes. The suspension was centrifuged at 40,000×g for 20 minutes at 0° C. again. The resulting pellet was homogenized in 100 volumes of the above buffer and provided as synaptosome membranes solutiofifor the next assay.
To the aliquots (900μ) of synaptosome membranes solution were added 50 μl solution ^3 H-Ketanserin solution at the terminal concentration of 0.2 mM and 50 μl of test compound or its medium, and incubated at 37° C. for 20 minutes. After completion of the reaction, the mixture was rapidly vacuum-filtered through Whatman^R GF/B filters. The filters were washed three times with 5 ml of the above buffer, and then the radioactivity of the residue remaining on the filters was measured by liquid scintillation counter. Non specific binding was determined under the presence of 10 μM of mianserin. 50% inhibition concentration (ICY) of the test compound was graphically determined.

[1] abbreviates: tritiated 8-OH-DPAT 0.2 nM, rat hippocampus, 37° C., 10 minutes, read-out: Binding Profile IC50 5-HT1A.
Where [2] appears, read: 3H-Spiperone 0.2 nM, rat corpus striatum, 37° C., 20 minutes, read-out: Binding Profile IC50 D2.
Setting [3] is: read-out: Binding Profile IC50 5-HT1A, tritiated 8-OH-DPAT 0.2 nM, rat hippocampus, 37° C., 10 minutes.

Molecules are shown by their SMILES. Like-named read-outs stand apart in the source and are kept apart here.

T2 sequence (P61169 whole entry): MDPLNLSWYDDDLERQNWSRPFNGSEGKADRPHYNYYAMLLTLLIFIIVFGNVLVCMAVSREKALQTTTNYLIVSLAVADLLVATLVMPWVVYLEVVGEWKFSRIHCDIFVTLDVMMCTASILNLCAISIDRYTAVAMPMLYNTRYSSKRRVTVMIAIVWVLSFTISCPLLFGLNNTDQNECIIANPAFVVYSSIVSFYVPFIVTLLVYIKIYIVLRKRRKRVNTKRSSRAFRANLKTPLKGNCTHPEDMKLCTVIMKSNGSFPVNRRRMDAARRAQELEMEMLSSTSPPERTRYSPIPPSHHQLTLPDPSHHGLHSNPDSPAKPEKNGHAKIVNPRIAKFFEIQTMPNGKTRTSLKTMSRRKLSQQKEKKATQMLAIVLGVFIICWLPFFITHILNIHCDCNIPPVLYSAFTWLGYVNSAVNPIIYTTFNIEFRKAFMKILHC
T3 sequence (P14842 whole entry): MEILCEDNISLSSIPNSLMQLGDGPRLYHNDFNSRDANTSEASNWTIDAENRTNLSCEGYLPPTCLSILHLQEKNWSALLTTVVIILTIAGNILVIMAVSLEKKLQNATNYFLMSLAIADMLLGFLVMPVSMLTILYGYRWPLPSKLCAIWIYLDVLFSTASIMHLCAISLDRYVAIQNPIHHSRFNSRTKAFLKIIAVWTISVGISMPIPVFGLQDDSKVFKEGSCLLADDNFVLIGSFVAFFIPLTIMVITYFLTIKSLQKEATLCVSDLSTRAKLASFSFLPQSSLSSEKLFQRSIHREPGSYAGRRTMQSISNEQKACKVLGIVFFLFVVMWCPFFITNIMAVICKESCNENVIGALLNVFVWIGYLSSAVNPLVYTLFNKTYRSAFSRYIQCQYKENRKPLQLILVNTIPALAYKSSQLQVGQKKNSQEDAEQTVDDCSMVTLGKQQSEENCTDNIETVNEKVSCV

Consider `CC(=O)N1C[C@@H]2C[C@@H]3C(=Cc4cccc1c42)[C@@H](C)CN3C` [Example 35, 5β(10→9)abeo-2,3α-Dihydro-9,10-didehydro-1-acetyl-6-methyl-8β-methyl-ergoline], for which the IC50 on 5-HT1A receptor (setting [1]) was 530 nM; on D1 receptor, above 10000 nM; on D2 receptor (setting [2]) it was 6030 nM; at 5-HT2 receptor, above 10000 nM.

Turning to `C[C@H]1CN(C)[C@@H]2C[C@@H]3CNc4ccc([N+](=O)[O-])c(c43)C=C21` [Example 40, 5β(10→9)abeo-2,3β-Dihydro-9,10-didehydro-6-methyl-8β-methyl-12 nitro-ergoline], the IC50 is 3 nM at 5-HT1A receptor (setting [1]), 2750 nM on D1 receptor, 4870 nM on D2 receptor (setting [2]) and 1240 nM on 5-HT2 receptor.

Take `C[C@H]1CN(C)[C@@H]2C[C@@H]3CN(C(N)=O)c4cccc(c43)C=C21` [Example 36, 5β(10→9)abeo-2,3β-Dihydro-9,10-didehydro-1-amino-carbonyl-6-methyl-8β-methyl-ergoline]: the IC50 on 5-HT1A receptor (setting [1]) was 100 nM; on D1 receptor, above 10000 nM; at D2 receptor (setting [2]) it was 4480 nM; at 5-HT2 receptor, above 10000 nM.

With `C[C@H]1CN(C)[C@@H]2C[C@@H]3CNc4ccc(Br)c(c43)C=C21` [Example 39, 5β(10→9)abeo-2,3β-Dihydro-9,10-didehydro-6-methyl-8β-methyl-12-bromo-ergoline], the IC50 at 5-HT1A receptor was determined as 6 nM; on D1 receptor, 7100 nM; at D2 receptor, 130 nM; on 5-HT2 receptor, 2080 nM.

Regarding `C[C@H]1CN(C)[C@@H]2Cc3c(Br)[nH]c4cccc(c34)C=C21` [Example 4, 5β(10→9)abeo-9,10-Didehydro-2-bromo-6-methyl-8β-methyl-ergoline], the half-inhibitory concentration (IC50) was 330 nM at 5-HT1A receptor (setting [1]), 1920 nM on D1 receptor, 620 nM at D2 receptor (setting [2]) and 1000 nM at 5-HT2 receptor.

As to `CC(=O)N1C[C@H]2C[C@@H]3C(=Cc4cccc1c42)[C@@H](C)CN3C` [Example 34, 5β(10→9)abeo-2,3β-Dihydro-9,10-didehydro-1-acetyl-6-methyl-8β-methyl-ergoline], the IC50 was 100 nM at 5-HT1A receptor (setting [1]), above 10000 nM at D1 receptor, 5000 nM on D2 receptor (setting [2]) and above 10000 nM at 5-HT2 receptor.

On to `C[C@H]1CN(C)[C@@H]2Cc3c[nH]c4cccc(c34)C=C21` [Example 3, 5β(10→9)abeo-9,10-Didehydro-6-methyl-8β-methyl-ergoline], for which the IC50 on 5-HT1A receptor is 6 nM; at D1 receptor it was 1850 nM; on D2 receptor (setting [2]), 940 nM; on 5-HT2 receptor, 110 nM.

For the compound `C[C@H]1CN(C)[C@@H]2C[C@@H]3CNc4cccc(c43)C=C21` [Example 33, 5β(10→9)abeo-2,3β-Dihydro-9,10-didehydro-6-methyl-8β-methyl-ergoline], the IC50 is 6 nM at 5-HT1A receptor (setting [3]), above 10000 nM on D1 receptor, above 10000 nM at D2 receptor (setting [2]) and above 10000 nM at 5-HT2 receptor.

For `C[C@H]1CN(C)[C@@H]2Cc3c[nH]c4ccc([N+](=O)[O-])c(c34)C=C21` [Example 42, 5β(10→9)abeo-9,10-Didehydro-6-methyl-8β-methyl-14-nitro ergolina], the IC50 is 18 nM at 5-HT1A receptor (setting [3]); above 10000 nM on D1 receptor; 2000 nM at D2 receptor (read-out: Binding Profile IC50 D2, 3H-Spiperone 0.2 nM, rat corpus striatum, 37° C., 20 minutes); 1860 nM on 5-HT2 receptor.

As for `CSc1[nH]c2cccc3c2c1C[C@@H]1C(=C3)[C@@H](C)CN1C` [Example 5, 5β(10→9)abeo-9,10-Didehydro-2-methylthio-6-methyl-8β-methyl-ergoline], the IC50 at 5-HT1A receptor amounted to 800 nM; on D1 receptor, 2540 nM; on D2 receptor, 850 nM; at 5-HT2 receptor it was 800 nM.
